Where two headings read alike, the source gives them in different places.
Assays:
[1] = biological target: cytochrome P450 2C9 (Homo sapiens, UniProt P11712); settings: cited from earlier work
[2] = cited from earlier work
[3] = physchem; settings: for solubility: thermodynamic from solid
Experimental: Solubility studies were done on Form A in water and a variety of organic solvents. […] Solubility was also determined in these solvents at approximately 50° C.

[4] = Automated moisture sorption/desorption; type: physicochemical; settings: for solid form after moisture sorption/desorption: XRPD after desorption
Experimental: Moisture sorption/desorption data were collected on a VTI-SGA-100 Vapor Sorption Analyzer. Sorption and desorption data were collected over a range of 5% to 95% relative humidity (RH) at 10% RH intervals under a nitrogen purge. Samples were not dried prior to analysis. Equilibrium criteria used for analysis were less than 0.0100% weight change in 5 minutes with a maximum equilibration time of 3 hours if the weight criterion was not met. Data were not corrected for the initial moisture content of the samples. Sodium chloride and polyvinylpyrolidone were used as calibration standards. A sample was taken after desorption was complete and analyzed by powder X-ray diffraction for potential form change.

[5] = Slurry interconversion studies in cyclohexane; type: physicochemical; settings: for form resulting from slurry: cyclohexane, ambient temperature, 50° C. and 5° C.
Experimental: Samples of mixed forms by XRPD and pure forms were used for interconversion studies (see FIG. 37).
A saturated solution was prepared by vortexing and sonicating ca. 4 mg (−)-halofenate Form A in approximately 5-6 mL cyclohexane. This solution was filtered into a sample containing a mixture of ca. 40 mg Form A/Form D. The mixture was slurred on a rotating wheel at ambient temperature for approximately 6 days. The solids were recovered by vacuum filtration and vacuum dried at ambient temperature. The dry solids were analyzed by polarized light microscopy and XRPD.
The experiment was repeated using a shaker block at ca 50° C. using 2 mL of cyclohexane and slurried for ca. 3 days. and the supernatant was removed through decantation. Both the ambient and 50° C. experiments were repeated using pure forms A and E (ca. 20 mg of each form). The ambient experiment was also repeated with A, B, D, and E (ca. 10 mg of each form, slurred approximately 7 days) on a rotating wheel and on a magnetic stir plate in the refrigerator (ca 5° C.). When conversion was not deemed complete by XRPD solids were re-slurried in cyclohexane.
Interconversion studies were carried out in cyclohexane at ambient temperature 50° C. and 5° C. (see FIG. 37). The solvent was chosen because of the high solubility of the various forms in common organic solvents. Forms A, B, D and E were used as starting materials.

[6] = Thermal analysis (DSC/TGA), decomposition; type: physicochemical
Experimental: Differential scanning calorimetry (DSC) was performed using a TA Instruments 2920 differential scanning calorimeter. The sample was placed into an aluminum DSC pan and the weight accurately recorded. The pan was covered with a lid and then crimped. The sample cell was equilibrated at 25° C. and heated under a nitrogen purge at a rate of 10° C./min, up to a final temperature of 350° C. Indium metal was used as the calibration standard. Reported temperatures are at the transition maxima.
Thermographic analyses (TGA) was performed using a TA Instruments 2920 thermographic analyzer. The sample was placed into an aluminum sample pan and inserted into a TGA furnace. The sample was first equilibrated at 25° C., then heated under a nitrogen at a rate of 10° C./min, up to a final temperature of 350° C. Nickel and ALUMEL™ were used as calibration standards.

[7] = Solid form stability on drying, slurrying and storage; type: physicochemical; settings: for conversion to other solid forms: upon drying, slurrying or over time

Chain of cytochrome P450 2C9 (P11712 whole entry): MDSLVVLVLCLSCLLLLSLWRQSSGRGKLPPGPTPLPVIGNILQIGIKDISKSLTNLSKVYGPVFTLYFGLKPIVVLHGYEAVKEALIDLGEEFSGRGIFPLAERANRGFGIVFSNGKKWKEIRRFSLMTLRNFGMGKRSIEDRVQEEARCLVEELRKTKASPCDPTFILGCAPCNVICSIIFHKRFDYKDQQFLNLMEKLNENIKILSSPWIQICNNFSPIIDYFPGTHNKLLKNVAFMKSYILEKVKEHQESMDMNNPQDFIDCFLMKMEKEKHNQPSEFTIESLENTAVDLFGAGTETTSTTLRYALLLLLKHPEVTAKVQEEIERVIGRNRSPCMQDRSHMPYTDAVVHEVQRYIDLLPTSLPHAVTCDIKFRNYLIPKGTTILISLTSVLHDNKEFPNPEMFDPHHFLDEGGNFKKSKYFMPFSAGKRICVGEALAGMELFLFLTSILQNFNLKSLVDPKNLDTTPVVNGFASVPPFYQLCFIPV

SMILES | hygroscopicity [4] | solid form after moisture sorption/desorption [4] | form resulting from slurry [5] | decomposition onset [6] | conversion to other solid forms [7] | further results
O=C(O)C(Oc1cccc(C(F)(F)F)c1)c1ccc(Cl)cc1 (racemic) [halofenic acid, 4-Chlorophenyl-(3-trifluoromethylphenoxy)-acetic acid] | – | – | – | – | – | inhibition of cytochrome P450 2C9 [1]: inhibited
CC(=O)NCCOC(=O)C(Oc1cccc(C(F)(F)F)c1)c1ccc(Cl)cc1 (racemic) [racemic halofenate, 2-acetamidoethyl 4-chlorophenyl-(3-trifluoromethylphenoxy)-acetate] | – | – | – | – | – | side effects ([2]; Friedberg et al., Clin. Res. 1986): gastrointestinal bleeding from stomach and peptic ulcers; drug-drug interactions ([2]; with agents such as warfarin sulfate (COUMADIN), Vesell and Passantanti 1972): some indications of drug-drug interactions
O=C(O)C(Oc1cccc(C(F)(F)F)c1)c1ccc(Cl)cc1 (single isomer, unassigned; (-)) [(−)-enantiomer of halofenic acid] | – | – | – | – | – | ability to inhibit cytochrome P450 2C9 compared to the (+)-enantiomer (less active) ([1]; versus (+)-enantiomer of halofenic acid, U.S. Pat. No. 6,262,118): about twenty-fold
CC(=O)NCCOC(=O)C(Oc1cccc(C(F)(F)F)c1)c1ccc(Cl)cc1 (single isomer, unassigned; (-)) [(−)-halofenate, (−)-2-acetamidoethyl 4-chlorophenyl-(3-trifluoromethylphenoxy)-acetate] | – | – | – | – | – | solubility ([3]; organic solvent or mixture): > 300 mg/mL; solubility ([3]; water): < 1 mg/mL
CC(=O)NCCOC(=O)C(Oc1cccc(C(F)(F)F)c1)c1ccc(Cl)cc1 (stereo not shown) [Form A] | non-hygroscopic | essentially unchanged | resulted in Form A | approximately 200 °C | – | relative solubility in crystallization solvents ([3]; some crystallization solvents): lower solubility; weight gain ([4]; at 65% relative humidity (RH)): no weight gain; weight gain ([4]; at 65-95% RH): 1.6%; loss of weight gain in desorption study ([4]; desorption at 5% RH): All of the weight gain was lost; relative stability of crystal form ([5]; from slurry interconversion in cyclohexane): most stable crystal form; relative thermodynamic stability of crystalline solid form [7]: most thermodynamically stable; relative thermodynamic stability of crystalline solid form ([7]; listed as form A): most stable crystalline solid form; storage stability ([7]; long periods (months)): could be stored for long periods (months) without decomposition
CC(=O)NCCOC(=O)C(Oc1cccc(C(F)(F)F)c1)c1ccc(Cl)cc1 (stereo not shown) [Form B] | – | – | resulted in Form A | – | could be converted to other solid forms upon drying or slurrying | –
CC(=O)NCCOC(=O)C(Oc1cccc(C(F)(F)F)c1)c1ccc(Cl)cc1 (stereo not shown) [Form C] | – | – | – | – | could be converted to other forms upon drying or slurrying | conversion to other solid forms ([7]; listed as form C): over time conversion to crystal form E (below) occurred
CC(=O)NCCOC(=O)C(Oc1cccc(C(F)(F)F)c1)c1ccc(Cl)cc1 (stereo not shown) [Form D] | non-hygroscopicity | remained Form D | resulted in Form A | approximately 225 °C | could be converted to Form A upon slurring | weight gain ([4]; at 95% RH): less than 0.1%
CC(=O)NCCOC(=O)C(Oc1cccc(C(F)(F)F)c1)c1ccc(Cl)cc1 (stereo not shown) [Form E] | non-hygroscopicity | remained Form E | resulted in Form A | approximately 225 °C | could be converted to Form A upon slurring | weight gain ([4]; at 95% RH): less than 0.2%

From US9845285B2, “Crystalline solid and amorphous forms of (−)-halofenate and methods related thereto” (CymaBay Therapeutics, Inc., priority 2005, dated 2017)
